Reference: patent US7939272B2, “Biological markers predictive of anti-cancer response to insulin-like growth factor-1 receptor kinase inhibitors” (OSI Pharmaceuticals, Inc., priority 2007, dated 2011)
Like-named read-outs stand apart in the source and are kept apart here. Each block holds one compound with its values, some of them ahead of it.

How the values were obtained:
[1] = molecular target: IGF-1R kinase (Homo sapiens, UniProt P08069); assay: IGF-1R kinase inhibition; type: biochemical; conditions: IGF-1R kinase inhibitor potency, approx.
Chain of IGF-1R kinase (P08069 31-1367): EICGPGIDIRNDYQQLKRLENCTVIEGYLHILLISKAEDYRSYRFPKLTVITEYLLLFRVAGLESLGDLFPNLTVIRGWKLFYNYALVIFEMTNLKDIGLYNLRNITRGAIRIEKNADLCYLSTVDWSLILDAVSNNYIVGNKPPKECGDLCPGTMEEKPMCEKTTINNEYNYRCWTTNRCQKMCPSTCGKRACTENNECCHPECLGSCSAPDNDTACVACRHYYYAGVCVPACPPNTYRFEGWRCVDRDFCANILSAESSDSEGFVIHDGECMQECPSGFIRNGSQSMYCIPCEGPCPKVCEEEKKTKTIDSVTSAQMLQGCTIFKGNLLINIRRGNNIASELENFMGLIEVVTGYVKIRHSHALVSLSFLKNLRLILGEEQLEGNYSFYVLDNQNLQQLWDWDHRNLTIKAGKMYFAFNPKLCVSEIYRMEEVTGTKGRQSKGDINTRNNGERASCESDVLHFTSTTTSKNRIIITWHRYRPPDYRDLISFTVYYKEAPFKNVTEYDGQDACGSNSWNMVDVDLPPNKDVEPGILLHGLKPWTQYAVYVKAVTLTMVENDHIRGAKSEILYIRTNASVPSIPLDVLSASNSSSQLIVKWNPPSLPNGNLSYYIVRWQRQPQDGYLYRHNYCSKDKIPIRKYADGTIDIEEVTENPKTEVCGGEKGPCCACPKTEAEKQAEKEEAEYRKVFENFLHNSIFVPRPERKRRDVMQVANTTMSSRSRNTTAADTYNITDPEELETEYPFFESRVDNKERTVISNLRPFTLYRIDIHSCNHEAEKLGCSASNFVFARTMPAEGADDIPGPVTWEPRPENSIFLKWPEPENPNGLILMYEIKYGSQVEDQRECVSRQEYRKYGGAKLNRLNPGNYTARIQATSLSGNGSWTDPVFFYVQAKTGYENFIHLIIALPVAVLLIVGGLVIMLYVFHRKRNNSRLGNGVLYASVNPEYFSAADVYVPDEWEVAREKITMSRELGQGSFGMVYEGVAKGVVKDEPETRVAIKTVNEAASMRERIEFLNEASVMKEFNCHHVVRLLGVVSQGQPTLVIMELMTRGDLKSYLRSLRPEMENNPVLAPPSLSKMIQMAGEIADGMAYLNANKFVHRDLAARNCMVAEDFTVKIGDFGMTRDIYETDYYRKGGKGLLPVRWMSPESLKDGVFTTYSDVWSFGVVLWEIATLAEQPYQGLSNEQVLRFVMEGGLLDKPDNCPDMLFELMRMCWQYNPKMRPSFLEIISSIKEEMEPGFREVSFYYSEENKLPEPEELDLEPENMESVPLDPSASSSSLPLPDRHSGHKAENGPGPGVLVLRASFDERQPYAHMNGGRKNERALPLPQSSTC

[2] = tested on: A549 cells; assay: Cell-Titer Glo cell growth inhibition; type: cell-based, human; conditions: NSCLC cell line A549
Description: (§1) The NSCLC lines with IGF-1R, H292, H358, H322, H441, A549, Calu6, H460, H1703 and SW1573 were cultured in the appropriate ATCC recommended supplemented media. Cell extracts were prepared by detergent lysis ((50 mM Tris-HCl, pH8, 150 mM NaCl, 1% NP-40, 0.5% NaDeoxycholate, 0.1% SDS) containing protease and phosphatase inhibitors. The soluble protein concentration was determined by micro-BSA assay (Pierce, Rockford Ill.).
(§2) IGF-1R inhibitor Compound 66 (i.e. 3-(3-Azetidin-1-ylmethyl-cyclobutyl)-1-(2-phenyl-quinolin-7-yl)-imidazo[1,5-a]pyrazin-8-ylamine; see structure below) stock concentration was 10 mM in 100% DMSO (dimethyl sulfoxide). Serial dilutions (1:3 or 1:4) were used to establish the 50% inhibitory dose of IGF-1R inhibitor. Before dosing, inhibitor was diluted in 100% DMSO, and then added to the cells at desired final concentrations in duplicates. The final DMSO concentration was between 0.3-0.5%. Compound 66 was synthesized by the methods described in published International patent application number WO 2005/097800 A1.
(§3) For measuring cell viability, Cell-Titer Glo assay was used, which is available as a kit from Promega. The basis of the assay is a luminescent quantitation of ATP present in a cell culture plate well. In essence, the greater the number of viable cells in the well, the greater the level of ATP present. The assay utilizes a substrate that binds ATP to produce a luminescent signal, which can be read on a luminometer. Unless otherwise noted, the manufacturer's instructions were followed exactly. Briefly, on Day 1, cells were plated in 120 μl of 10% serum-containing growth media at a density of 4000 cells/well in a white polystyrene 96 well assay plate. On day 2, cells were treated with 15 μl of 10× concentration of the IGF-1R inhibitor (e.g. Compound 66, PQIP) or DMSO alone for a final well volume of 150 μl. After 72 h incubation with the inhibitor, the cells were assayed. Results were calculated as a fraction of the DMSO controlled cells.

[3] = tested on: H292 cells; assay: Cell-Titer Glo cell growth inhibition; type: cell-based, human; conditions: NSCLC cell line H292
Description: as §1, §2, §3

[4] = tested on: H358 cells; assay: Cell-Titer Glo cell growth inhibition; type: cell-based, human; conditions: NSCLC cell line H358
Description: as §1, §2, §3

[5] = tested on: H441 cells; assay: Cell-Titer Glo cell growth inhibition; type: cell-based, human; conditions: NSCLC cell line H441
Description: as §1, §2, §3

[6] = tested on: SW1573 cells; assay: Cell-Titer Glo cell growth inhibition; type: cell-based, human
Description: as §1, §2, §3

[7] = tested on: H460 cells; assay: Cell-Titer Glo cell growth inhibition; type: cell-based, human
Description: as §1
as §2, with “Compound 66 was synthesized by the methods described in published International patent application number WO 2005/097800 A1.” left out
(§4) For measuring cell viability, Cell-Titer Glo assay was used, which is available as a kit from Promega. The basis of the assay is a luminescent quantitation of ATP present in a cell culture plate well. […] The assay utilizes a substrate that binds ATP to produce a luminescent signal, which can be read on a luminometer. […] Results were calculated as a fraction of the DMSO controlled cells.

[8] = tested on: panel comprised of 28 tumor cell lines; assay: Cell-Titer Glo cell growth inhibition, tumor cell line panel; type: cell-based, human; conditions: for inhibition at 3 µM: Homo sapiens, 3 μM PQIP, 28 tumor cell lines
Description: as §1
(§5) The cell lines HCT-116, HT-29, GEO, Colo205, SW480, SW620, BxPC3, HPAC, CFPAC-1, MiaPaca-2, Panc1, A1165, MDA-MB-231, MDA-MB-435, DU4475, and MDA-MB468 were routinely cultured in media as prescribed by the ATCC containing 10% FCS. With the exception of GEO tumor cells (obtained from Roswell Park Cancer Institute (RPCI)), and A1165 (obtained from FCRF (NCI-Frederick Cancer Research Facility)) all tumor cells were obtained from the ATCC.
IGF-1R inhibitor Compound PQIP: Synthesis of PQIP: cis-3-[3-(4-Methyl-piperazin-1-yl)-cyclobutyl]1-(2-phenyl-quinolin-7-yl)-imidazo[1,5-a]pyrazin-8-ylamine (PQIP; see structure below), is a 1,3-disubstituted-8-amino-imidazopyrazine derivative synthesized by the methods described in patent application number WO 2005/097800 A1. Compound identity and purity (>99%) was verified by ^1H and ^13C nuclear magnetic resonance, mass spectrometry (MS), and high-performance liquid chromatography using Bruker Advance 400, WatersMicromass ZQ, and Waters LC Module I Plus instruments, respectively, as well as by elemental analysis. PQIP was dissolved in DMSO at 10 mmol/L for use in biochemical or cellular assays done in vitro. […]
as §4

[9] = tested on: DLD-1 cells; assay: Cell-Titer Glo cell growth inhibition; type: cell-based, human
Description: as §3, with “IGF-1R inhibitor Compound PQIP: […] PQIP was dissolved in DMSO at 10 mmol/L for use in biochemical or cellular assays done in vitro. For in vivo studies, PQIP was dissolved in 25 mmol/L tartaric acid at an appropriate concentration to deliver the desired dose at 20 mL/kg by oral gavage. For” for “For”

[10] = tested on: RKO cells; assay: Cell-Titer Glo cell growth inhibition; type: cell-based, human
Description: as §3, with “IGF-1R inhibitor Compound PQIP: […] PQIP was dissolved in DMSO at 10 mmol/L for use in biochemical or cellular assays done in vitro. For in vivo studies, PQIP was dissolved in 25 mmol/L tartaric acid at an appropriate concentration to deliver the desired dose at 20 mL/kg by oral gavage. For” for “For”

[11] = tested on: HCT-116 cells; assay: Cell-Titer Glo cell growth inhibition; type: cell-based; conditions: Homo sapiens, 3 μM PQIP, activating mutation in PI3K
Description: as §5
IGF-1R inhibitor Compound PQIP: Synthesis of PQIP: cis-3-[3-(4-Methyl-piperazin-1-yl)-cyclobutyl]1-(2-phenyl-quinolin-7-yl)-imidazo[1,5-a]pyrazin-8-ylamine (PQIP; see structure below), is a 1,3-disubstituted-8-amino-imidazopyrazine derivative synthesized by the methods described in patent application number WO 2005/097800 A1. […]
as §4

[12] = tested on: MCF-7 cells; assay: Cell-Titer Glo cell growth inhibition; type: cell-based; conditions: Homo sapiens, MCF7, 3 μM PQIP, activating mutation in PI3K
Description: as §3, with “The” for “For measuring cell viability, Cell-Titer Glo assay was used, which is available as a kit from Promega. The”, “On day 2, cells were treated with 15 μl of 10× concentration of the IGF-1R inhibitor (e.g. Compound 66, PQIP) or DMSO alone for a final well volume of 150 μl.” left out

[13] = tested on: BxPC3 cells; assay: Cell-Titer Glo cell growth inhibition; type: cell-based, human; conditions: BxPC3, growth inhibition by an IGF-1R kinase inhibitor
Description: as §5
(§6) IGF-1R inhibitor Compound PQIP: Synthesis of PQIP: cis-3-[3-(4-Methyl-piperazin-1-yl)-cyclobutyl]1-(2-phenyl-quinolin-7-yl)-imidazo[1,5-a]pyrazin-8-ylamine (PQIP; see structure below), is a 1,3-disubstituted-8-amino-imidazopyrazine derivative synthesized by the methods described in patent application number WO 2005/097800 A1. Compound identity and purity (>99%) was verified by ^1H and ^13C nuclear magnetic resonance, mass spectrometry (MS), and high-performance liquid chromatography using Bruker Advance 400, WatersMicromass ZQ, and Waters LC Module I Plus instruments, respectively, as well as by elemental analysis. PQIP was dissolved in DMSO at 10 mmol/L for use in biochemical or cellular assays done in vitro. For in vivo studies, PQIP was dissolved in 25 mmol/L tartaric acid at an appropriate concentration to deliver the desired dose at 20 mL/kg by oral gavage.
as §3

[14] = tested on: CFPAC cells; assay: Cell-Titer Glo cell growth inhibition; type: cell-based, human; conditions: growth inhibition by an IGF-1R kinase inhibitor
Description: as §5, §6, §3

[15] = tested on: Colo205 cells; assay: Cell-Titer Glo cell growth inhibition; type: cell-based, human; conditions: Colo205, growth inhibition by an IGF-1R kinase inhibitor
Description: as §5, §6, §3

[16] = tested on: GEO cells; assay: Cell-Titer Glo cell growth inhibition; type: cell-based, human; conditions: growth inhibition by an IGF-1R kinase inhibitor
Description: as §5, §6, §3

[17] = tested on: HPAC cells; assay: Cell-Titer Glo cell growth inhibition; type: cell-based, human; conditions: growth inhibition by an IGF-1R kinase inhibitor
Description: as §5, §6, §3

[18] = tested on: HT-29 cells; assay: Cell-Titer Glo cell growth inhibition; type: cell-based, human; conditions: HT-29, growth inhibition by an IGF-1R kinase inhibitor
Description: as §5, §6, §3

[19] = tested on: MiaPaca-2 cells; assay: Cell-Titer Glo cell growth inhibition; type: cell-based, human; conditions: MiaPaca-2, growth inhibition by an IGF-1R kinase inhibitor
Description: as §5, §6, §3

[20] = tested on: Panc1 cells; assay: Cell-Titer Glo cell growth inhibition; type: cell-based, human; conditions: Panc1, growth inhibition by an IGF-1R kinase inhibitor
Description: as §5, §6, §3

- IC50 [1]: ~50 nM
Structure (SMILES): Nc1nccn2c1c(-c1ccc3ccc(-c4ccccc4)nc3c1)nc2[C@H]1C[C@@H](CN2CCC2)C1 [Compound 66, 3-(3-Azetidin-1-ylmethyl-cyclobutyl)-1-(2-phenyl-quinolin-7-yl)-imidazo[1,5-a]pyrazin-8-ylamine]
- sensitivity to Compound 66-mediated growth inhibition [2]: intermediate sensitivity
- sensitivity to Compound 66-mediated growth inhibition [3]: sensitive
- sensitivity to Compound 66-mediated growth inhibition [4]: sensitive
- sensitivity to Compound 66-mediated growth inhibition [5]: sensitive
- inhibition at 10 µM ([6]; Homo sapiens, SW1573 cells, 10 μM inhibitor, read-out: growth inhibition in vitro): < 10%
- sensitivity to Compound 66-mediated growth inhibition ([6]; NSCLC cell line SW1573): relatively insensitive
- sensitivity to Compound 66-mediated growth inhibition ([7]; NSCLC cell line H460): relatively insensitive

Structure (SMILES): CN1CCN([C@H]2C[C@@H](c3nc(-c4ccc5ccc(-c6ccccc6)nc5c4)c4c(N)nccn43)C2)CC1 [PQIP, cis-3-[3-(4-Methyl-piperazin-1-yl)-cyclobutyl]1-(2-phenyl-quinolin-7-yl)-imidazo[1,5-a]pyrazin-8-ylamine]
- inhibition at 3 µM ([7]; Homo sapiens, NCI-H460 cells, 3 μM PQIP, activating mutation in PI3K): < 20%
- inhibition at 3 µM ([8]; read-out: median growth inhibition for the panel): 37%
- inhibition at 3 µM ([8]; 72 hours after dosing, read-out: % maximal growth inhibition, range of sensitivities over the panel): 2 to 72%
- effects of varying concentrations on cell proliferation ([8]; all cell lines, data not shown): dose-dependent
- sensitivity to IGF-1R inhibition ([9]; DLD1, growth inhibition by an IGF-1R kinase inhibitor): relatively sensitive
- inhibition at 3 µM ([9]; Homo sapiens, DLD-1 cells, 3 μM PQIP, activating mutation in PI3K): < 20%
- inhibition at 3 µM ([10]; Homo sapiens, RKO cells, 3 μM PQIP, activating mutation in PI3K): < 20%
- sensitivity to IGF-1R inhibition ([10]; RKO, growth inhibition by an IGF-1R kinase inhibitor): relatively insensitive
- inhibition at 3 µM [11]: > 70%
- inhibition at 3 µM [12]: > 70%
- sensitivity to IGF-1R inhibition [13]: relatively sensitive
- sensitivity to IGF-1R inhibition [14]: relatively sensitive
- sensitivity to IGF-1R inhibition [15]: relatively sensitive
- sensitivity to IGF-1R inhibition [16]: relatively sensitive
- sensitivity to IGF-1R inhibition [17]: relatively sensitive
- sensitivity to IGF-1R inhibition [18]: relatively sensitive
- sensitivity to IGF-1R inhibition [19]: relatively insensitive
- sensitivity to IGF-1R inhibition [20]: relatively insensitive
